Tests used:
[1] = test system: CD69 in human whole blood; assay: Induction of CD69 in human whole blood (hWB); format: cell-based; settings: heparinized human whole blood, 17 h, CD69 surface staining; 100% set to 1 uM resiquimod; average where assay repeated
In short: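 hWB stimulated with compound at 1 uM final (1 mM stock), 37° C o/n (17 hrs). Surface CD69-PE staining with CD14/CD19 gating, fix/lysis, then flow cytometry read. IC50 curves with 100% set to 1 uM resiquimod.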

human TLR7 = target: T1, human TLR7 (Homo sapiens, UniProt Q9NYK1); assay: Human TLR7 agonist activity (hTLR7 reporter) assay in HEK-Blue TLR7 cells, SEAP readout; format: cell-based; settings: 18 h treatment, average where assay repeated
T1 construct: host or cells: HEK-Blue TLR7 cells (engineered human embryonic kidney cells)
T1 sequence (Q9NYK1 27-1049): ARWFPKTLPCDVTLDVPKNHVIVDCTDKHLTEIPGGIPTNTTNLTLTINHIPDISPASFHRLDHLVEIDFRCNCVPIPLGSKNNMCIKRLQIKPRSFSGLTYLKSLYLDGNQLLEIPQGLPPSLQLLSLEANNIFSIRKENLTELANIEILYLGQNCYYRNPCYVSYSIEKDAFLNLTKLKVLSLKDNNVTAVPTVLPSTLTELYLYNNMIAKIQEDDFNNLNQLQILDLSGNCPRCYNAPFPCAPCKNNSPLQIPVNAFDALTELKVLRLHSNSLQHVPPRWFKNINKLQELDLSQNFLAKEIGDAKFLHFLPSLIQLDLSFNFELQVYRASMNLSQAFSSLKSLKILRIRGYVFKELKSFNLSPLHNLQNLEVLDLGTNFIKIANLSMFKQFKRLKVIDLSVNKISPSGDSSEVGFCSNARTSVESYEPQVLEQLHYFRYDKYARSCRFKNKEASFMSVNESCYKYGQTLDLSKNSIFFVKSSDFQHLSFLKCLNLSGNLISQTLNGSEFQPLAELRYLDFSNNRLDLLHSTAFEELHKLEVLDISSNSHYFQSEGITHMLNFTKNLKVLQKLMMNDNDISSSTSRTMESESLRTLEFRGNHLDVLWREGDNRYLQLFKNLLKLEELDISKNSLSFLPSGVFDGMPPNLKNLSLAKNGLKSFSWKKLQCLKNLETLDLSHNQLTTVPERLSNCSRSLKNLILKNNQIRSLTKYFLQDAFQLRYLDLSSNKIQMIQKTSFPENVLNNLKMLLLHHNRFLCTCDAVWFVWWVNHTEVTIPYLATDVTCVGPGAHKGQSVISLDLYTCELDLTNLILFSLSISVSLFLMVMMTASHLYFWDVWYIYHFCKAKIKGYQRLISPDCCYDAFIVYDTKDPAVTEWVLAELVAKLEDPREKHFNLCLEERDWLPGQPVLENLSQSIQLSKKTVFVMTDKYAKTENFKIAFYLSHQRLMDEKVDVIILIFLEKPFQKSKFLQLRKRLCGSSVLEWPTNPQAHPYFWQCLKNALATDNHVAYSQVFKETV
In short: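 HEK-Blue TLR7 cells (15,000/well) treated with compound for 18 h at 37 °C, 5% CO2. Secreted SEAP measured with Quanti-Blue, 30 min, OD 620 nm. EC50 taken as concentration giving half-maximal response between baseline and maximum.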

An EC50 [1] of 0.0012 µM and an EC50 (human TLR7) of 0.0406 µM were found for CCC[C@@H](CCO)Nc1nc(N)nc2c(F)nn(Cc3ccc(CN4CC5(CNC5)C4)cc3OC)c12 [Compound 245] in this work.
An EC50 [1] of 0.0111 µM and an EC50 (human TLR7) of 0.18 µM were found for CCC[C@@H](CCO)Nc1nc(N)nc2c(C)nn(Cc3ccc(CN4CC5(CNC5)C4)cc3OC)c12 [Compound 246] in this work.
An EC50 [1] of 0.0371 µM and an EC50 (human TLR7) of 0.197 µM were found for COc1cc(C(=O)N2CC3(CN(C)C3)C2)ccc1Cn1ncc2nc(N)nc(NCc3noc(C)n3)c21 [Compound 247] in this work.
An EC50 [1] of 0.0254 µM and an EC50 (human TLR7) of 0.073 µM were found for COc1cc(C(=O)N2CC3(C2)CN(C(C)C)C3)ccc1Cn1ncc2nc(N)nc(NCc3noc(C)n3)c21 [Compound 248] in this work.
An EC50 [1] of 0.0016 µM and an EC50 (human TLR7) of 0.0556 µM were found for CCC[C@@H](CCO)Nc1nc(N)nc2cnn(Cc3ccc(CN4CC5(CN(CC)C5)C4)cc3OC)c12 [Compound 249] in this work.
An EC50 [1] of 0.0011 µM and an EC50 (human TLR7) of 0.0453 µM were found for CCC[C@@H](CCO)Nc1nc(N)nc2cnn(Cc3ncc(C4CC5(C4)CN(C4CCOCC4)C5)cc3OC)c12 [Compound 250] in this work.
An EC50 [1] of 0.0018 µM and an EC50 (human TLR7) of 0.134 µM were found for CCC[C@@H](CCO)Nc1nc(N)nc2cnn(Cc3ncc(C4CC5(C4)CN(C(C)C)C5)cc3OC)c12 [Compound 251] in this work.
An EC50 [1] of 0.0004 µM and an EC50 (human TLR7) of 0.0061 µM were found for CCC[C@@H](CCO)Nc1nc(N)nc2cnn(Cc3ccc(CN4CC5(C4)CN(CC4CCC4)C5)cc3OC)c12 [Compound 252] in this work.
An EC50 [1] of 0.0013 µM and an EC50 (human TLR7) of 0.0145 µM were found for CCC[C@@H](CCO)Nc1nc(N)nc2cnn(Cc3ccc(CN4CC5(C4)CN(CC4CC4)C5)cc3OC)c12 [Compound 253] in this work.
An EC50 [1] of 0.0187 µM and an EC50 (human TLR7) of 0.244 µM were found for COc1cc(CN2CC3(C2)CS(=O)(=O)C3)ccc1Cn1ncc2nc(N)nc(NCc3noc(C)n3)c21 [Compound 254] in this work.
An EC50 [1] of 0.0057 µM and an EC50 (human TLR7) of 0.175 µM were found for CCCCNc1nc(N)nc2cnn(Cc3ccc(CN4CCC5(CC4)CNC5)cc3OC)c12 [Compound 255] in this work.
An EC50 [1] of 0.0107 µM and an EC50 (human TLR7) of 0.267 µM were found for CCCCNc1nc(N)nc2cnn(Cc3ccc(CN4CC5(CCNCC5)C4)cc3OC)c12 [Compound 256] in this work.
An EC50 [1] of 0.0048 µM and an EC50 (human TLR7) of 0.198 µM were found for CCCCNc1nc(N)nc2cnn(Cc3ccc(CN4CC5(CCNC5)C4)cc3OC)c12 [Compound 257] in this work.
An EC50 [1] of 0.0065 µM and an EC50 (human TLR7) of 0.147 µM were found for CCCCNc1nc(N)nc2cnn(Cc3ccc(CN4CCC5(CNC5)C4)cc3OC)c12 [Compound 258] in this work.
An EC50 [1] of 0.0136 µM and an EC50 (human TLR7) of 0.0625 µM were found for CCCCNc1nc(N)nc2cnn(Cc3ccc(CN4CCC5(CC4)CN(CCO)C5)cc3OC)c12 [Compound 259] in this work.
An EC50 [1] of 0.008 µM and an EC50 (human TLR7) of 0.12 µM were found for CCCCNc1nc(N)nc2cnn(Cc3ccc(CN4CC5(CCN(CCO)C5)C4)cc3OC)c12 [Compound 261] in this work.
An EC50 [1] of 0.0044 µM and an EC50 (human TLR7) of 0.0645 µM were found for CCCCNc1nc(N)nc2cnn(Cc3ccc(CN4CCC5(C4)CN(CCO)C5)cc3OC)c12 [Compound 262] in this work.
An EC50 [1] of 0.0127 µM and an EC50 (human TLR7) of 0.0687 µM were found for COc1cc(CN2CC3(C2)CN(C(C)C)C3)ccc1Cn1ncc2nc(N)nc(NCc3noc(C)n3)c21 [Compound 263] in this work.
An EC50 [1] of 0.0782 µM and an EC50 (human TLR7) of 0.916 µM were found for COc1cc(CN2CC3(C2)CN(C(C)=O)C3)ccc1Cn1ncc2nc(N)nc(NCc3noc(C)n3)c21 [Compound 264] in this work.
An EC50 [1] of 0.0331 µM and an EC50 (human TLR7) of 0.177 µM were found for CCCCNc1nc(N)nc2cnn(Cc3ccc(CN4CCC5(CCNC5)C4)cc3OC)c12 (stereo not drawn) [Compound 265] in this work.
An EC50 [1] of 0.0093 µM and an EC50 (human TLR7) of 0.141 µM were found for CCCCNc1nc(N)nc2cnn(Cc3ccc(CN4CCC5(CCNCC5)CC4)cc3OC)c12 [Compound 266] in this work.
An EC50 [1] of 0.0013 µM and an EC50 (human TLR7) of 0.0585 µM were found for CCCCNc1nc(N)nc2cnn(Cc3ccc(CN4CCC5(CCN(CCO)C5)C4)cc3OC)c12 (stereo not drawn) [Compound 267] in this work.
An EC50 [1] of 0.0037 µM and an EC50 (human TLR7) of 0.0699 µM were found for CCC[C@@H](CCO)Nc1nc(N)nc2c(C)nn(Cc3ccc(CNC4CC5(C4)CN(C)C5)cc3OC)c12 [Compound 269] in this work.
An EC50 [1] of 0.0002 µM and an EC50 (human TLR7) of 0.0115 µM were found for CCC[C@@H](CCO)Nc1nc(N)nc2cnn(Cc3ncc(C4CC5(CCN(C6CCOCC6)CC5)C4)cc3OC)c12 [Compound 270] in this work.
An EC50 [1] of 0.0006 µM and an EC50 (human TLR7) of 0.0133 µM were found for CCC[C@@H](CCO)Nc1nc(N)nc2cnn(Cc3ncc(C4CCC5(CC4)CN(C4CCOCC4)C5)cc3OC)c12 [Compound 271] in this work.
An EC50 [1] of 0.0319 µM and an EC50 (human TLR7) of 0.668 µM were found for CCC[C@@H](CCO)Nc1nc(N)nc2cnn(Cc3ncc(C4=CC5(CCNCC5)C4)cc3OC)c12 [Compound 272, (3S)-3-({5-amino-1-[(5-{7-azaspiro[3.5]non-1-en-2-yl}-3-methoxypyridin-2-yl)methyl]-1H-pyrazolo[4,3-d]pyrimidin-7-yl}amino)hexan-1-ol] in this work.
An EC50 [1] of 0.0015 µM and an EC50 (human TLR7) of 0.0475 µM were found for CCC[C@@H](CCO)Nc1nc(N)nc2cnn(Cc3ncc(C4=CC5(CCN(C6CCOCC6)CC5)C4)cc3OC)c12 [Compound 273, (3S)-3-{[5-amino-1-({3-methoxy-5-[7-(oxan-4-yl)-7-azaspiro[3.5]non-1-en-2-yl]pyridin-2-yl}methyl)-1H-pyrazolo[4,3-d]pyrimidin-7-yl]amino}hexan-1-ol] in this work.
An EC50 [1] of 0.0011 µM and an EC50 (human TLR7) of 0.0823 µM were found for CCC[C@@H](CCO)Nc1nc(N)nc2cnn(Cc3ncc(C4=CC5(CCN(C(C)C)CC5)C4)cc3OC)c12 [Compound 274] in this work.
An EC50 [1] of 0.0012 µM and an EC50 (human TLR7) of 0.011 µM were found for CCC[C@@H](CCO)Nc1nc(N)nc2cnn(Cc3ncc(C4=CC5(CCN(CC(C)C)CC5)C4)cc3OC)c12 [Compound 275] in this work.
An EC50 [1] of 0.0003 µM and an EC50 (human TLR7) of 0.0197 µM were found for CCC[C@@H](CCO)Nc1nc(N)nc2cnn(Cc3ncc(C4CCC5(CC4)CN(C(C)C)C5)cc3OC)c12 [Compound 277] in this work.
